Source: BindingDB's records for doi:10.1021/jm801176e (Nci-Frederick, 2009)

Columns and labels:
[1] = Inhibition of HIV1 wild type reverse transcriptase-mediated viral DNA synthesis in human HOS cells assessed as luciferase activity treated 3 hrs before infection measured after 48 hrs by luminescence assay
[2] = Inhibition of HIV1 wild type reverse transcriptase-mediated viral DNA synthesis in human HOS-313 cells expressing HSV thymidine kinase assessed as luciferase activity treated 3 hrs before infection measured after 48 hrs by luminescence assay
[3] = Inhibition of HIV1 reverse transcriptase M184V mutant-mediated viral DNA synthesis in human HOS-313 cells expressing HSV thymidine kinase assessed as luciferase activity treated 3 hrs before infection measured after 48 hrs by luminescence assay
[4] = Inhibition of HIV1 reverse transcriptase M184V mutant-mediated viral DNA synthesis in human HOS cells assessed as luciferase activity treated 3 hrs before infection measured after 48 hrs by luminescence assay

SMILES: Cc1cccc2c1OP(=O)(OC[C@H]1C[C@@H](n3cc(C)c(=O)[nH]c3=O)C[C@@H]1O)OC2 (stereo not given in full)
- IC50 [1]: 0.38 µM
- IC50 [2]: 0.12 µM

SMILES: Cc1cn([C@@H]2C[C@H](CO)[C@@H](O)C2)c(=O)[nH]c1=O
- IC50 [3]: 0.19 µM
- IC50 [4]: 1.8 µM
- IC50 [1]: 3.2 µM
